Laboratory results taken from PubChem BioAssay (NCI).
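Tested at 5 concentrations; 48 h exposure; 96-well plates; endpoints linearly interpolated, else capped at highest concentration. TGI marks complete inhibition of growth.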

Experiments:
Assay in all cases: growth of human tumour cells (NCI), 48 h
[1] = tested on: TK-10 renal
[2] = tested on: NCI-H460 lung
[3] = tested on: UACC-62 melanoma
[4] = tested on: HT29 colon
[5] = tested on: EKVX NSCLC
[6] = tested on: SK-MEL-2 melanoma
[7] = tested on: SF-268 CNS
[8] = tested on: MDA-MB-231 breast
[9] = tested on: MOLT-4 leukemia
[10] = tested on: HCC-2998 colon
[11] = tested on: U251 CNS
[12] = tested on: OVCAR-3 ovarian
[13] = tested on: LOX IMVI melanoma
[14] = tested on: HOP-62 NSCLC
[15] = tested on: NCI-H522 lung
[16] = tested on: SK-MEL-5 melanoma
[17] = tested on: ACHN renal
[18] = tested on: SW-620 colon
[19] = tested on: HCT-116 colon
[20] = tested on: NCI-H226 lung
[21] = tested on: OVCAR-5 ovarian
[22] = tested on: SK-MEL-28 melanoma
[23] = tested on: HL-60(TB) leukemia
[24] = tested on: OVCAR-4 ovarian
[25] = tested on: SR leukemia
[26] = tested on: MALME-3M melanoma
[27] = tested on: PC-3 prostate
[28] = tested on: DU-145 prostate
[29] = tested on: MDA-N
[30] = tested on: K-562 leukemia
[31] = tested on: T-47D breast
[32] = tested on: UACC-257 melanoma
[33] = tested on: IGROV1 ovarian
[34] = tested on: NCI-H23 lung
[35] = tested on: RPMI-8226 leukemia
[36] = tested on: UO-31 renal
[37] = tested on: 786-0 renal
[38] = tested on: CCRF-CEM leukemia
[39] = tested on: HCT-15 colon
[40] = tested on: HS 578T breast
[41] = tested on: M14 melanoma
[42] = tested on: MDA-MB-435
[43] = tested on: BT-549 breast
[44] = tested on: MCF7 breast
[45] = tested on: SF-295 CNS
[46] = tested on: HOP-92 NSCLC
[47] = tested on: A549 NSCLC
[48] = tested on: COLO 205 colon
[49] = tested on: SK-OV-3 ovarian
[50] = tested on: SF-539 CNS
[51] = tested on: RXF 393 renal
[52] = tested on: SNB-19 CNS
[53] = tested on: A498 renal
[54] = tested on: SN12C renal
[55] = tested on: SNB-75 CNS
[56] = tested on: KM12 colon
[57] = tested on: CAKI-1 renal
[58] = tested on: OVCAR-8 ovarian
[59] = tested on: NCI/ADR-RES ovarian

Measured: TGI

CC(=O)NCCCCN(CCCNC(C)=O)C(=O)CNS(=O)(=O)c1cccc2c(N(C)C)cccc12
> 100 µM: [1] | [2] | [3] | [4] | [5] | [6] | [7] | [8] | [9] | [10] | [11] | [12] | [13] | [14] | [15] | [16] | [17] | [18] | [19] | [20] | [21] | [22] | [23] | [24] | [25] | [26] | [27] | [28] | [29] | [30] | [31] | [32] | [33] | [34] | [35] | [36] | [37] | [38] | [39] | [40] | [41] | [42] | [43] | [44] | [45] | [46] | [47] | [48] | [49] | [50] | [51] | [52] | [53] | [54]

CSc1nn(C)cc2ncnc1-2
64 µM: [55]
> 100 µM: [1] | [2] | [3] | [4] | [5] | [6] | [7] | [8] | [9] | [11] | [12] | [14] | [16] | [17] | [18] | [19] | [20] | [21] | [22] | [23] | [25] | [27] | [28] | [29] | [30] | [31] | [32] | [56] | [57] | [33] | [34] | [35] | [36] | [37] | [38] | [39] | [40] | [58] | [41] | [42] | [43] | [44] | [45] | [47] | [48] | [59] | [50] | [51] | [52] | [53] | [54]
